Measured values reported in ChEMBL document CHEMBL1201862, “PubChem BioAssay data set” (2004).
Calls of active or inactive are those of the source. For most assays here, no stated cut-off is given here; in the data, actives have a measured EC50 and inactives only a lower limit.

Legend:
Cytochrome P450 2C9 = Cytochrome P450 2C9 (Homo sapiens, UniProt P11712)
[1] = target: Luciferin 4-monooxygenase (Photinus pyralis, UniProt P08659); assay: firefly luciferase enzyme inhibitors, dose response, biochemical, luminescence (AID 1891)
[2] = Luminescence Cell-Based Dose Confirmation HTS to Identify Inhibitors of Platelet Dense Granule Release. [Related pubchem assays: 1663 (Primary HTS), 1678 (Summary of Project)]; assay type: functional
[3] = target: T1, Corticotropin-releasing factor receptor 2/Corticotropin-releasing factor-binding protein (Homo sapiens, UniProt P24387+Q13324); assay: activators of CRF receptor 2 with binding protein – uHTS hits, confirmation (AID 602473); assay type: functional; conditions: read-out: EC50_Mean
T1 sequence (Q13324 whole entry): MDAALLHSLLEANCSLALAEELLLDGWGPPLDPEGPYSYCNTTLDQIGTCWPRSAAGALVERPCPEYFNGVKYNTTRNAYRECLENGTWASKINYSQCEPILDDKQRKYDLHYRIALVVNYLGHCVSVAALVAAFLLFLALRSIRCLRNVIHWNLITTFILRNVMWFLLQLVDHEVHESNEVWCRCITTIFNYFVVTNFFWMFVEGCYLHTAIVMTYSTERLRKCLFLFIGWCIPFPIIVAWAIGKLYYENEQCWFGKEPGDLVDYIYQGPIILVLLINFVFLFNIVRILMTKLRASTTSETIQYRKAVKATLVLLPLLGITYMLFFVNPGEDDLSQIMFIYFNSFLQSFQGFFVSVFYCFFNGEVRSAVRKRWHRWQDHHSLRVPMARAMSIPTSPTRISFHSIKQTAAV
T1 sequence (P24387 whole entry): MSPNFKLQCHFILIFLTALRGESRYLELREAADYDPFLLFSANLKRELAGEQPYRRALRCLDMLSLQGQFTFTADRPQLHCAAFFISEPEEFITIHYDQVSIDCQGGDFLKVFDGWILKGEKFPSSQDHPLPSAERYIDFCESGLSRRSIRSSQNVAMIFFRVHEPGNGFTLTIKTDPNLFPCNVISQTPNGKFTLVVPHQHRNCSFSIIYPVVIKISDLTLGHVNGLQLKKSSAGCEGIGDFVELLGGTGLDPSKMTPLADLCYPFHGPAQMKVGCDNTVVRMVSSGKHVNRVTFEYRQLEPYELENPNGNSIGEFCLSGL

[4] = target: T1, Corticotropin-releasing factor receptor 2/Corticotropin-releasing factor-binding protein; assay: Dose Response confirmation of uHTS hits for small molecule antagonists of the CRF-binding protein and CRF-R2 receptor complex.; assay type: functional; conditions: read-out: IC50_Mean
[5] = NIH-3T3 fibroblast cytotoxicity, dose response, cytotoxicity control, cell-based, fluorescence, Alamar Blue, secondary assay (AID 2327); assay type: functional;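 further: NIH-3T3 mouse fibroblasts cultured with fluconazole at 8 µg/mL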
[6] = C. albicans growth with fluconazole, confirmation, fluorescence, retest (AID 2467); assay type: functional, cell-based
Cytochrome P450 3A4 = Cytochrome P450 3A4 (Homo sapiens, UniProt P08684);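 further: CYP3A4 tested as one member of a cytochrome P450 panel screen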
[7] = Luminescence Cell-Based Dose Confirmation HTS to Identify Activators of 5'UTR Stem-Loop Driven Alpha-Synuclein mRNA Translation in H4 Neuroglioblastoma Cells. [Related pubchem assays: 1829 (Project Summary), 1814 (Primary HTS)]; assay type: functional
H4 = assay: Luminescence Cell-Based Dose Response HTS to Identify Activators of 5'UTR Stem-Loop Driven Prion Protein mRNA Translation in H4 Neuroglioblastoma Cells. [Related pubchem assays: 1829 (Project Summary), 1814 (Primary HTS)]; assay type: functional; conditions: Homo sapiens
[8] = Luminescence Cell-Based Dose Response HTS to Identify Activators of Luciferase Translation or Activity in H4 […] Cells. [Related pubchem assays: 1829 (Project Summary), 1814 (Primary HTS)]; assay type: functional
Streptococcus = assay: Group A Streptococcus viability loss, dose response, counter-screen for streptokinase expression inhibitor project, luminescence, BacTiterGlo (AID 1915); assay type: functional, organism-based;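 further: potency for reduction of bacterial viability or growth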
[9] = test system: Streptococcus sp. 'group A'; assay: growth inhibition of control SK(-) GAS strain, dose response, counter-screen for streptokinase expression inhibitor project, luminescence, kanamycin, BacTiterGlo, confirmation (AID 1900); assay type: functional, organism-based

Chain of Cytochrome P450 2C9 (P11712 whole entry): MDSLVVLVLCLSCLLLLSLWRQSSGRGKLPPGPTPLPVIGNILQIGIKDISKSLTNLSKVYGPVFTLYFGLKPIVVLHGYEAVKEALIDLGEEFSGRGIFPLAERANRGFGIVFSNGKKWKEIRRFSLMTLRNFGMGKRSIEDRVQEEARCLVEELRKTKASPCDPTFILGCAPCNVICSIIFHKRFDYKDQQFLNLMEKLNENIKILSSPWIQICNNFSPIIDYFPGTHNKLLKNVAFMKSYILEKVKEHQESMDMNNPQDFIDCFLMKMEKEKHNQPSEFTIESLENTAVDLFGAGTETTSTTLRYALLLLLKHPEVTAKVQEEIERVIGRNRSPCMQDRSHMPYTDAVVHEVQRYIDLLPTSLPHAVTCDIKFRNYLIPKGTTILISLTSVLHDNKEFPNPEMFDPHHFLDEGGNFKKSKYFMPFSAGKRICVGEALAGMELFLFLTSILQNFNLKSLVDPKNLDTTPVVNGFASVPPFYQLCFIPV
Chain of Luciferin 4-monooxygenase (P08659 whole entry): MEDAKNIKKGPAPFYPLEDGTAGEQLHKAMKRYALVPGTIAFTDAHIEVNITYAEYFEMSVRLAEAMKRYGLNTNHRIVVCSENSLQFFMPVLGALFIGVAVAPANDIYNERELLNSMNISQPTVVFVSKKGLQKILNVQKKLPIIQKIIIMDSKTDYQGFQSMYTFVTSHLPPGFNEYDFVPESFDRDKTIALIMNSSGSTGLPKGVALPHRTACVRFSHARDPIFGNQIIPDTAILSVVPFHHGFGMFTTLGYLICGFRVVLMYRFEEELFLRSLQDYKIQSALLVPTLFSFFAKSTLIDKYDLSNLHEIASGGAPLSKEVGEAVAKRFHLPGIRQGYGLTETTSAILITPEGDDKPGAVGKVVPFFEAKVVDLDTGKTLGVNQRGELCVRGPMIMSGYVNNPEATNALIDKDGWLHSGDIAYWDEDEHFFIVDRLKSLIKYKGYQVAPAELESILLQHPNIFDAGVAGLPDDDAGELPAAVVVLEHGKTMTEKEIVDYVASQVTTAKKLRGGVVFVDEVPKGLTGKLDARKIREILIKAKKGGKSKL
Chain of Cytochrome P450 3A4 (P08684 whole entry): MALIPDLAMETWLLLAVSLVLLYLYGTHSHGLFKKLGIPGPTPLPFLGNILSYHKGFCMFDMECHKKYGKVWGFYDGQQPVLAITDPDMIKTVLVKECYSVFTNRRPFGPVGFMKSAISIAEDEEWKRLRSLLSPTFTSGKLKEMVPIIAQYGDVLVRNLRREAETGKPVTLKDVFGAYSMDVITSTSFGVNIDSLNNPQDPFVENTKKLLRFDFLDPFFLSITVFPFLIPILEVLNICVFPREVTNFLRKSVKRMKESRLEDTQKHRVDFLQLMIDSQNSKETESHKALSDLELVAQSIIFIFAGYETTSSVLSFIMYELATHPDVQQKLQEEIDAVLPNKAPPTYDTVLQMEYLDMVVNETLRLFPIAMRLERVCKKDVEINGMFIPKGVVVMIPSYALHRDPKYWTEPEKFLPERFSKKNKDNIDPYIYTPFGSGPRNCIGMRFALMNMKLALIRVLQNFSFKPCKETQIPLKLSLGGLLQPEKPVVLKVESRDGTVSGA

Row | SMILES | AC50 (Cytochrome P450 2C9) | EC50 [1] | EC50 [2] | further results
1 | COc1ccc(CC(=S)N2CCOCC2)cc1OC | inconclusive |  |  | 
2 | COc1ccc(CCNC(=O)CSc2nc(N)c3c(C)c(C)oc3n2)cc1OC |  | > 112 µM (not active) | > 112 µM (not active) | 
3 | O=C1c2ccccc2C(Nc2ccc(Cl)cn2)N1c1ccccn1 (centres undefined) |  | > 112 µM (not active) | > 112 µM (not active) | 
4 | CCCCNC(=O)CCc1nc2cccnc2n1Cc1ccc(OC)cc1 |  |  |  | EC50 [3]: > 53 µM (inactive); IC50 [4]: > 47.1 µM (inactive)
5 | O=C(CCCCCN1C(=O)c2cccc3cccc(c23)C1=O)N1CCOCC1 |  |  |  | EC50 [5]: 22.3 µM (active); EC50 [6]: > 38 µM (not active)
6 | C=CCn1c(C)cc(C(=O)CSc2nnc(Cc3ccccc3)o2)c1C |  |  |  | EC50 [3]: > 53 µM (inactive); IC50 [4]: > 47.1 µM (inactive)
7 | CN(C)c1ccnc(-c2cccc(NS(C)(=O)=O)c2)n1 | inconclusive |  |  | AC50 (Cytochrome P450 3A4): 31.6 µM (inconclusive)
8 | Cc1ccc(OCn2c(=O)sc3ccccc32)cc1 |  |  |  | EC50 [7]: 42 µM (active); EC50 (H4): 14 µM (active); EC50 [3]: > 53 µM (inactive); IC50 [4]: > 47.1 µM (inactive); EC50 [8]: 35.3 µM (active)
9 | COc1cc(OC)c(C#N)c(S(=O)(=O)Cc2ccccc2)c1 | inconclusive |  |  | 
10 | O=C(c1cc(C(F)(F)F)cc(C(F)(F)F)c1)N1CCC2(CC1)CCN(c1ncccn1)CC2 | inconclusive |  |  | 
11 | CCOC(=O)c1cnc2c([N+](=O)[O-])cnn2c1C |  | > 112 µM (not active) | > 112 µM (not active) | 
12 | COc1ccc(CNc2oc(COc3ccccc3)nc2C#N)cc1 |  |  |  | EC50 [3]: > 53 µM (inactive); IC50 [4]: > 47.1 µM (inactive)
13 | CCCNC(=O)COC(=O)/C=C/c1ccco1 |  | > 112 µM (not active) | > 112 µM (not active) | 
14 | Cc1ccc(S(=O)(=O)n2nnc3ccccc32)c(C)c1C |  |  |  | EC50 [3]: > 53 µM (inactive); IC50 [4]: > 47.1 µM (inactive)
15 | Cc1cc2ccccc2c(=O)n1CC(=O)NCC(=O)N1CCCC1 | inconclusive |  |  | 
16 | COc1ccccc1NC(=O)c1cnc2n(c1=O)CCS2 | inconclusive |  |  | AC50 (Cytochrome P450 3A4): 31.6 µM (inconclusive)
17 | CCc1ccc(N2C(=O)c3ccc4c5c(ccc(c35)C2=O)CC4)cc1 | inconclusive |  |  | 
18 | CCc1ccc(OCC(=O)NNC(=S)NC(=O)C2CCCCC2)c(Br)c1 |  |  |  | EC50 (Streptococcus): 3.91 µM (active); EC50 [9]: < 0.06 µM (active); EC50 [5]: > 150 µM (inactive); EC50 [6]: 2.33 µM (active)
19 | O=C(NCc1ccc2c(c1)OCO2)C1CCN(S(=O)(=O)c2ccc(F)cc2)CC1 |  | > 112 µM (not active) | > 112 µM (not active) | 
20 | Cc1ccc(CNC(=O)CCS(=O)(=O)c2ccc(Br)s2)o1 |  | > 112 µM (not active) | > 112 µM (not active) | 
21 | Cc1ccc2oc(-c3cccc(NC(=O)C4CCCO4)c3)nc2c1 (centres undefined) |  | 26.6 µM (active) | > 112 µM (not active) | 
22 | Cc1noc(C)c1C(=O)N1CCC2(CCN(Cc3ccccc3)CC2)CC1 | inconclusive |  |  | 
23 | COc1cccc(Nc2ncc3nc(-c4cn(C)c5ccccc45)c(=O)n(C[C@H]4CCCO4)c3n2)c1 | inconclusive |  |  | 
